Columns and labels:
[1] = biological target: T1, PqsR (Pseudomonas aeruginosa, UniProt Q9I4X0); assay: STD-NMR titration ([…] to […] DHQ, […] SUMO-PqsR-C87); EMSA also gave an apparent Kd of […]; format: binding; set-up: gene mvfR
Target sequence in this assay (Q9I4X0 87-332): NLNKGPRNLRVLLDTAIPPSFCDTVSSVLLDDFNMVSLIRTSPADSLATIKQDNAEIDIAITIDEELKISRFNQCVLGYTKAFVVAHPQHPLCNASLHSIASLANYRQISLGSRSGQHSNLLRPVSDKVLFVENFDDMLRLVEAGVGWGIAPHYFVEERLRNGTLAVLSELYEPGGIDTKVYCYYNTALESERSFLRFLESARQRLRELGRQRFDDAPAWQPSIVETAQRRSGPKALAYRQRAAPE

[2] = biological target: T1, PqsR; assay: EMSA with lysate of E. coli Rosetta expressing His-SUMO-PqsR and biotinylated pqsA promoter DNA, semi-quantitative apparent Kd; format: biochemical; set-up: gene mvfR; recombinant PqsR, N-terminal His-tagged SUMO fusion
Target sequence in this assay (Q9I4X0 whole entry, the tested form may be a part): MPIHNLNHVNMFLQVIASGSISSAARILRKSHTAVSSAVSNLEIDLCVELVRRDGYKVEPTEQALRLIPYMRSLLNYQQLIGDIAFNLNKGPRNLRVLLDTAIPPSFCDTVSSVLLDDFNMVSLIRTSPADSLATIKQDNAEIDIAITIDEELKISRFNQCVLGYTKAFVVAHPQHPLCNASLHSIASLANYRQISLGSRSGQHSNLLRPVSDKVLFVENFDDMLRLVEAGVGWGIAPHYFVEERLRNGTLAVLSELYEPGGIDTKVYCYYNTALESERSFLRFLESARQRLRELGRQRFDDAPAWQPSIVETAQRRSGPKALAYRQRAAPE

[3] = tested on: His-SUMO-PqsR (Pseudomonas aeruginosa (PAO1?)); assay: EMSA

**Q.** With Oc1cc(O)c2ccccc2n1 [DHQ, 2,4-dihydroxyquinoline] as the molecule, how does the Kd [1] read?
**A.** The Kd was about 0.45 µM.

**Q.** How did the Kd [2] turn out when CCCCCCCc1[nH]c2ccccc2c(=O)c1O [PQS, 2-heptyl-3-hydroxy-4-quinolone] was run?
**A.** Its Kd is 0.033 µM.

**Q.** How did the binding signal (fraction free probe) [3] turn out when Bio-pqsA (pqsA' promoter probe) was run?
**A.** The binding signal (fraction free probe) was 0.0488.

From publication PMC4715436, “The role of 2,4-dihydroxyquinoline (DHQ) in Pseudomonas aeruginosa pathogenicity” (PeerJ, 2016)
